Assay results from patent US4732983A, “Pyschotropic polycyclic imides” (American Home Products Corporation, priority 1987, dated 1988).
Where two headings read alike, the source gives them in different places.

Legend:
[1] = target: T1, D-2 dopamine receptor (Rattus norvegicus, UniProt P61169); test: [3H]spiroperidol binding inhibition, homogenized limbic brain tissue
T1 construct: homogenized limbic brain tissue is incubated with; from tissue; host or cells: homogenized limbic brain tissue

[2] = target: T2, 5-HT1A serotonin receptor (Rattus norvegicus, UniProt P19327); test: Inhibition of [3H]8-OH DPAT binding
T2 construct: 44: 1685-1696, 1985; from tissue
T2 sequence (P19327 1-422): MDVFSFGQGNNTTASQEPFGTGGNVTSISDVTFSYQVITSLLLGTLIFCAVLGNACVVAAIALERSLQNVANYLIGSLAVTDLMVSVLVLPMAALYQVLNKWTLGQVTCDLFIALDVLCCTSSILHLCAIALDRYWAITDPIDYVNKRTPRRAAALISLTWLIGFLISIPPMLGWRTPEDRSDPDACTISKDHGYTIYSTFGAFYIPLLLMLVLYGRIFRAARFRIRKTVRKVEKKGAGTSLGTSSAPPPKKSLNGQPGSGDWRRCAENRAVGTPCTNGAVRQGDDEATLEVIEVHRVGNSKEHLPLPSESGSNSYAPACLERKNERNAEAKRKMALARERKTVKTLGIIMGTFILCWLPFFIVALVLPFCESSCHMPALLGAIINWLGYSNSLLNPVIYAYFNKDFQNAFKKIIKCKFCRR

[3] = tested on: CF-1 mice (Charles River); test: Antagonism of apomorphine-induced stereotyped behavior and climbing; type: in vivo, mouse; conditions: for ED50: Mus musculus, po; for ED50 / Apomorphine Antagonism ED50, stereotypy / Apomorphine Antagonism ED50, climbing: apomorphine 1 mg/kg s.c.; for Apomorphine Antagonism ED50, stereotypy / Apomorphine Antagonism ED50, climbing: p.o.; for ratio of the ED50 for stereotyped behavior to the ED50 for climbing: apomorphine-induced, standard antipsychotic drugs
Method: Readings are repeated every five minutes during a thirty minute test session. […] The ratio of the ED50 for stereotyped behavior to the ED50 for climbing is calculated.

[4] = tested on: male CD rats (Charles River); test: Conditioned avoidance, shelf-jump response; type: in vivo, rat; conditions: 40 mg/kg i.p., single dose
Method: The rat can avoid the electric shock by jumping to an exposed shelf (shelf-jump response). A response during the initial warning tone is considered an avoidance response, while a response during shock delivery is considered as escape response. […] The compounds of this invention were tested at a single dose (40 mg./kg. i.p.) in this procedure and were rated relative to their inhibition of conditioned avoidance responding.

[5] = tested on: rats; test: Conditioned avoidance, discrete trial (lever press substituted for shelf-jump), Avoidance Block; type: in vivo, rat; conditions: for ED50: Rattus norvegicus, po, read-out: Conditioned Avoidance Discrete Trial AB50 (Avoidance Block); for Conditioned Avoidance Discrete Trial AB50 (Avoidance Block): p.o.
[6] = read-out: Apomorphine Antagonism ED50, climbing

T1 sequence (P61169 whole entry): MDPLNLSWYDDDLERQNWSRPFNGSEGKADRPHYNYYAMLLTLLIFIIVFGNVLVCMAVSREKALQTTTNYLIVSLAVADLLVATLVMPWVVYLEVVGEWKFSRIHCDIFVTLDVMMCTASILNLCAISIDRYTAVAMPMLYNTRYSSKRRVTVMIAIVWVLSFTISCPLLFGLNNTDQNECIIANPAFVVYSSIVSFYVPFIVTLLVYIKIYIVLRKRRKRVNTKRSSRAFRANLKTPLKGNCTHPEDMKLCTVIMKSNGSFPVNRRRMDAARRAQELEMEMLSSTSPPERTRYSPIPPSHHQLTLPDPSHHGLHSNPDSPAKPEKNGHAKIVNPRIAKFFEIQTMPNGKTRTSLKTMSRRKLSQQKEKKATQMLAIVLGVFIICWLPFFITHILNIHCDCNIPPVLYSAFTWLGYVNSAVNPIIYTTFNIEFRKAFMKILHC

`O=C1C2C(C(=O)N1CCCCN1CCN(c3ncccn3)CC1)C1C3CC4C(C32)C41` (stereo not drawn) [Example 1, Endo-2-[4-[4-(2-pyrimidinyl)-1-piperazinyl]butyl]octahydro-4,5,7-metheno-1H-pentaleno[1,2-c]pyrrole-1,3(2H)-dione] was tested, and the “[3H] Spiroperidol Binding Inhibition, % at 1 μM” value ([1]; 1 µM) was 76%, the Ki [2] was 12.8 nM and the ED50 [3, 6] was 17 mg/kg. For the same compound, the “Apomorphine Antagonism ED50, stereotypy” value [3] was “inactive”, the “Conditioned Avoidance Shelf-Jump (inhibition of conditioned avoidance responding)” value [4] was ~ 80% and the ED50 [5] was 55.7 mg/kg.

`O=C1C2C(C(=O)N1CCCCN1CCN(c3ncccn3)CC1)C1C3CC4C(C32)C41` (stereo not drawn) [Example 2, Exo-2-[4-[4-(2-pyrimidinyl)-1-piperazinyl]butyl]octahydro-4,5,7-metheno-1H-pentaleno[1,2-c]pyrrole-1,3(2H)-dione] was tested, and the “[3H] Spiroperidol Binding Inhibition, % at 1 μM” value ([1]; 1 µM) was 0%, the Ki [2] was 40 nM and the “Apomorphine Antagonism ED50, climbing” value [3] was 15.61 mg/kg. The “Apomorphine Antagonism ED50, stereotypy” value [3] was “inactive”, the “Conditioned Avoidance Shelf-Jump (inhibition of conditioned avoidance responding)” value [4] was > 20% and the “Conditioned Avoidance Discrete Trial AB50 (Avoidance Block)” value [5] was “active”.

`O=C1C2C(C(=O)N1CCCCN1CCN(c3cncc(Cl)n3)CC1)C1C3CC4C(C32)C41` (stereo not drawn) [Example 3, Endo-2-[4-[4-(6-chloro-2-pyrazinyl)-1-piperazinyl]butyl]octahydro-4,5,7-metheno-1H-pentaleno[1,2-c]pyrrole-1,3-(2H)-dione] was tested, and the inhibition at 1 µM [1] was 44%, the Ki [2] was 41.9 nM and the ED50 [3, 6] was 19 mg/kg. For the same compound, the “Apomorphine Antagonism ED50, stereotypy” value [3] was “inactive”, the “Conditioned Avoidance Shelf-Jump (inhibition of conditioned avoidance responding)” value [4] was > 20% and the ED50 [5] was 46.8 mg/kg.

For `O=C1C2C(C(=O)N1CCCCN1CCN(c3cnccn3)CC1)C1C3CC4C(C32)C41` (stereo not drawn) [Example 5, Endo-2-[4-[4-(2-pyrazinyl)-1-piperazinyl]butyl]octahydro-4,5,7-metheno-1H-pentaleno[1,2-c]pyrrole-1,3-(2H)-dione], the inhibition at 1 µM [1] was 25%, the Ki [2] was 94 nM and the “Apomorphine Antagonism ED50, climbing” value [3] was “inactive”. The “Apomorphine Antagonism ED50, stereotypy” value [3] was “inactive”, the “Conditioned Avoidance Shelf-Jump (inhibition of conditioned avoidance responding)” value [4] was ~ 80% and the “Conditioned Avoidance Discrete Trial AB50 (Avoidance Block)” value [5] was “inactive”.

For `O=C1C2C3CC4C2C4C3C(=O)N1CCCCN1CCN(c2cncc(Cl)n2)CC1` [Example 6, 2-[4-[4-(6-Chloro-2-pyrazinyl)-1-piperazinyl]butyl]hexahydro-4,6,7-metheno-1H-2-pyridine-1,3-(2H)-dione], the inhibition at 1 µM [1] was 29%, the Ki [2] was 51 nM and the ED50 [3, 6] was 1.74 mg/kg. For the same compound, the ED50 ([3]; read-out: Apomorphine Antagonism ED50, stereotypy) was 40.5 mg/kg, the “Conditioned Avoidance Shelf-Jump (inhibition of conditioned avoidance responding)” value [4] was ~ 80% and the “Conditioned Avoidance Discrete Trial AB50 (Avoidance Block)” value [5] was “active”.

In the case of `O=C1C2C3CC4C2C4C3C(=O)N1CCCCN1CCN(c2ncccn2)CC1` [Example 7, 2-[4-[4-(2-Pyrimidinyl)-1-piperazinyl]butyl]hexahydro-4,6,7-metheno-1H-2-pyridine-1,3-(2H)-dione], the inhibition at 1 µM [1] is reported as 51%, the Ki [2] is reported as 16 nM and the “Apomorphine Antagonism ED50, climbing” value [3] is reported as “inactive”. For the same compound, the “Apomorphine Antagonism ED50, stereotypy” value [3] was “inactive”, the “Conditioned Avoidance Shelf-Jump (inhibition of conditioned avoidance responding)” value [4] was ~ 80% and the “Conditioned Avoidance Discrete Trial AB50 (Avoidance Block)” value [5] was “weak”.

In the case of `O=C1CC2(CCCC2)CC(=O)N1CCCCN1CCN(c2ncccn2)CC1` [buspirone, reference compound], the “affinity for 5-HT1A serotonin receptor (in words)” value ([2]; displacement of [3H]8-OH DPAT) is reported as “potent affinity”.

For `CN(C)CCCN1c2ccccc2Sc2ccc(Cl)cc21` [chlorpromazine, reference compound], the “ratio of the ED50 for stereotyped behavior to the ED50 for climbing” value (shortened to “ratio of the ED50”) [3] was 1.51.

`O=C(CCCN1CCC(O)(c2ccc(Cl)cc2)CC1)c1ccc(F)cc1` [haloperidol, reference compound] was tested, and the “ratio of the ED50” value [3] was 1.00.

`CSc1ccc2c(c1)N(CCC1CCCCN1C)c1ccccc1S2` (stereo not shown) [thioridazine, reference compound] was tested, and the “ratio of the ED50” value [3] was 1.83.

In the case of “Exo-2-[4-[4-(6-chloro-2-pyrazinyl)-1-piperazinyl]butyl]octahydro-4,57-metheno-1H-pentaleno[1,2-c]pyrrole-1,3-(2H)-dione [Example 4]”, the “[3H] Spiroperidol Binding Inhibition, % at 1 μM” value [1] is reported as 54%, the “Inhibition of [3H] 8-OH DPAT Binding, % at 1 μM” value ([2]; 1 μM) is reported as 76% and the “Apomorphine Antagonism ED50, climbing” value [3] is reported as “inactive”. The “Apomorphine Antagonism ED50, stereotypy” value [3] was “inactive”, the “Conditioned Avoidance Shelf-Jump (inhibition of conditioned avoidance responding)” value [4] was > 20% and the “Conditioned Avoidance Discrete Trial AB50 (Avoidance Block)” value [5] was 56.16 mg/kg.
